Reference: publication PMC8878324, “Evaluation of New Antimicrobial Agents Based on tris(1H-Indol-3-yl)methylium Salts: Activity, Toxicity, Suppression of Experimental Sepsis in Mice” (Pharmaceuticals, 2022)
Like-named read-outs stand apart in the source and are kept apart here.

How the values were obtained:
Type in all cases: cell-based
[1] = system: Gram-positive bacteria; assay: MIC against Gram-positive bacteria
Method: (§1) We have tested the antimicrobial activity in vitro of over 100 tris(indolyl)methane derivatives against 16 strains of Gram-positive, Gram-negative bacteria and fungi including either sensitive or drug-resistant strains from ATCC, as well as resistant clinical isolates from the culture collection of the Laboratory for Control of Hospital Infections (Sechenov University, Moscow, Russia). The minimum inhibitory concentrations (MICs) were determined by the microdilution method in a cation-adjusted Müller–Hinton medium for bacteria and in a liquid culture medium RPMI 1640 with L-glutamine without sodium bicarbonate for fungi in accordance with the requirements of the Institute of Clinical and Laboratory Standards (CLSI/NCCLS). […] As a rule, their activity against Gram-negative bacteria was usually not that high. […] For comparison, the antimicrobial activity of prototype 4 is shown. The antibacterial antibiotic levofloxacin and the antifungal amphotericin B were used as reference drugs (Table 1).
The minimum inhibitory concentrations (MIC) for Gram-positive and Gram-negative bacteria were determined by two-fold serial microdilution method in a cation-adjusted Müller–Hinton medium for bacteria and in a liquid culture medium RPMI 1640 with L-glutamine without sodium bicarbonate for fungi in accordance with the requirements of the Institute of Clinical and Laboratory Standards (CLSI/NCCLS). The antibacterial antibiotic levofloxacin and the antifungal antibiotic amphotericin B from Sigma-Aldrich were used as reference drugs.

[2] = system: Candida albicans ATCC 14053; assay: MIC by broth microdilution (RPMI 1640); details: ATCC14053
Method: as §1
(§2) The synthesis of compounds and the scheme of their preparation and purification, as well as physicochemical characteristics, were described earlier. To evaluate the biological activity in vitro, the compounds were dissolved in DMSO at a concentration of 2.0–6.4 mg/mL, followed by preparation of two-fold dilutions in the same solvent, if necessary. The solutions were further diluted in an aqueous medium for the final concentration of DMSO not to exceed 1%, and the concentration of the compounds ranged from 64.0 to 0.13 μg/mL. To study compounds in vivo, solutions for intravenous administration in 5% glucose solution were prepared. Solutions were sterilized by filtration through 0.22 µm filters (Millipore, Burlington, MA, USA).
(§3) Strains of Gram-positive, Gram-negative bacteria and fungi including sensitive or drug-resistant strains from ATCC, as well as resistant clinical isolates from the culture collection of the Laboratory for Control of Hospital Infections (Sechenov University, Moscow, Russia), were used. Clinical isolates of Gram-positive bacteria Staphylococcus aureus 5 (MRSA), Staphylococcus aureus 10, Staphylococcus aureus 100KC (MRSA), Staphylococcus epidermidis 533, Staphylococcus haemoliticus 585 and Enterococcus faecium 569, as well as collection cultures of Gram-positive bacteria Staphylococcus aureus ATCC 700699, Staphylococcus aureus ATCC 25923, Staphylococcus aureus ATCC 3798 and collection cultures of Gram-negative bacteria Escherichia coli ATCC 25922, Klebsiella pneumoniae ATCC 13883, Proteus vulgaris ATCC 13315, Salmonella cholerasuis ATCC 14028, Pseudomonas aeruginosa ATCC 27853 and collection cultures of the yeast Candida albicans ATCC 14053 and the fungi Aspergillus niger ATCC 16404 were used. To grow the microorganisms, we used Trypticase Soy Agar (TSA, Sigma-Aldrich Co., Burlington, MA, USA). Trypticase Soy Agar, BBL, was used for cultivation of Staphylococcus spp. and E. coli. For cultivation of Enterococcus spp. and P. aeruginosa we used a ready-made dry medium Columbia Agar Base, BBL. The media were sterilized by autoclaving at 121 °C for 15 min. Yeast culture C. albicans was grown on Sabouraud agar (peptone—10 g, glucose—40 g, agar—20 g, distilled water—1 L, pH 6.0), and filamentous fungi A. niger was grown on potato–glucose agar (potatoes—200 g, glucose—20 g, agar—15 g, distilled water—1 L, pH 5.5–6.0).
(§4) To determine the antibacterial effect, a liquid Müller–Hinton medium (Becton, Dickinson and Company, Cockeysville, MD, USA) was used; to determine the effect of compounds on fungi we used RPMI 1640 medium with L-glutamine, without sodium bicarbonate, which was prepared from a dry medium (ICN Biomedicals Inc., Costa Mesa, CA, USA) by dilution in distilled water, subsequent buffering with 0.165 M of morpholinepropanesulfonic acid (MOPS, Acros Organics B.V.B.A., Morris Plains, NJ, USA) and adjusting the pH of the medium to 7.0 by adding 1 N of NaOH solution. […]

[3] = system: Aspergillus niger ATCC 16404; assay: MIC by broth microdilution (RPMI 1640); details: ATCC16404
Method: as §1, §2, §3, §4

Row | Structure (SMILES) | MIC ([1]; read-out: MIC) | MIC [2] | MIC [3] | MIC [1]
1 | OCCCCCn1cc([C+](c2cn(CCCCCO)c3ccccc23)c2cn(CCCCCO)c3ccccc23)c2ccccc21.[Cl-] [Compound 1, tris(1-(5-Hydroxypentyl)-1H-indol-3-yl) methylium chloride] | 2 µg/mL | > 64 µg/mL | > 64 µg/mL | –
2 | CCCn1cc([C+](c2cn(CCC)c3ccccc23)c2cn(C3=C(N)C(=O)NC3=O)c3ccccc23)c2ccccc21.[Cl-] [Compound 2, (1-(4-Amino-2,5-dioxo-2,5-dihydro-1H-pyrrol-3-yl)-1H-indol-3-yl)bis(1-propyl-1H-indol-3-yl) methylium chloride] | – | 12 µg/mL | 8 µg/mL | –
3 | CCCn1cc([C+](c2cn(CCC)c3ccccc23)c2cn(C3=C(N(C)C)C(=O)NC3=O)c3ccccc23)c2ccccc21 [Compound 3, 1-(4-Dimethylamino-2,5-dioxo-2,5-dihydro-1H-pyrrol-3-yl) -1H-indol-3-yl) bis(1-propyl-1H-indol-3-yl) methylium chloride] | – | 2 µg/mL | 2 µg/mL | 0.13 µg/mL
